“Also recorded” adds a separate entry of the source. Peptide text beside a SMILES is read from it.
Legend:
[1] = test system: PMA-induced dermatitis (ear); format: in vivo, CD-1 mice
From the text: FIGS. 10A and 10B are a series of images and a graph showing efficacy of topical anti-IL-23R peptides in treating PMA-induced dermatitis. PMA-induced dermatitis is often utilized as a model of chronic (and scaling) dermatitis, reminiscent of psoriatic dermatitis. […] FIG. 10B is a graph showing the differences in weight (mg) of ear punches with control ears untreated with PMA. […] FIGS. 11A to 11C are a series of images and graphs showing dose-response to topical administration of peptide 2309 in PMA-induced dermatitis. FIG. 11A is a photographic representation of dose-dependent effects of topical administration of peptide 2309 (mixed in PEG-400) on PMA-induced dermatitis in CD-1 mice. Concentrations of peptide 2309≧100 nM show significant efficacy.

IL-12R = target: T1, IL-12R (Homo sapiens, UniProt P42701+Q99665); assay: IL-12-induced STAT4 phosphorylation (selectivity, Western blot); format: cell-based; conditions: even at high concentrations, i.e., 10 μM
T1 construct: endogenous in cells
T1 sequence (Q99665 24-862, other chains not shown): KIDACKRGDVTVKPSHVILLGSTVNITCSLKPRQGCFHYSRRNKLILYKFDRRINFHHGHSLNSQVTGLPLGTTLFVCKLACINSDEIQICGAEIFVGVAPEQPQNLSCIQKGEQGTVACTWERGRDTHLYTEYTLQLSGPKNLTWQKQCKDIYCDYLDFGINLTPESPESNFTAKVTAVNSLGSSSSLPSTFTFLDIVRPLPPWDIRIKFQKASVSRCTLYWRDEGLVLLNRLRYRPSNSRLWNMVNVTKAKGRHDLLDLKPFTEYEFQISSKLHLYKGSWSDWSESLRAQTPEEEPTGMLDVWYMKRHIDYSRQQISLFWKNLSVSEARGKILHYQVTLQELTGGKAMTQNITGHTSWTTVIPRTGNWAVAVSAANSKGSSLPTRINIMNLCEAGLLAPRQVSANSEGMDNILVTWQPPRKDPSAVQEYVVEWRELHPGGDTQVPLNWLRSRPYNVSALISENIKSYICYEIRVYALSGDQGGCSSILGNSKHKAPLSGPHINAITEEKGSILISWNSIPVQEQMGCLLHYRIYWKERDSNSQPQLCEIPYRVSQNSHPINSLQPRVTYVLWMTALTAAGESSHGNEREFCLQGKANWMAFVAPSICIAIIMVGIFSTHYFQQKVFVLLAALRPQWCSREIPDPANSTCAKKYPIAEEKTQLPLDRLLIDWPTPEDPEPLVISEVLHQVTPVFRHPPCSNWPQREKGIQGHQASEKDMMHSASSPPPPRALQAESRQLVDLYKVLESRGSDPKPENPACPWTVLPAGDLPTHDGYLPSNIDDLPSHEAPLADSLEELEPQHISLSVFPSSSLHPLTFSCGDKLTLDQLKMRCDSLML
Method: FIGS. 8A and 8B are a series of graphs and Western Blots showing the specificity and selectivity of IL-23R binding peptides. […] [^125I]-2305 binding was performed in phosphate buffer saline pH=7.4 on PMA-activated HL-60 cells. [^125I]-labelled and unlabelled peptide 2305 was incubated with cells for 1 hour for equilibration. Cells were then washed four times and bound radioactivity measured using a Cobra II Autogamma gamma counter (Packard). Non-activated HL-60 cells, which express little IL-23R, were used as a negative control (shown on Western Blot of IL-23 receptor). A robust increase in IL-23R expression by PMA was observed on duplicate Western blots. Peptide 2305 is easily labelled with [^125I] on its tyrosine; in absence of tyrosine (e.g., peptide 2309) [^14C]-labelled amino acids can be used. […] IL-12R is very homologous to IL-23R. Western Blots of phosphorylated STAT4 and total STAT4 were performed on cell lysates.

IL-23R = target: T2, IL-23R (Mus musculus, UniProt Q8K4B4); assay: IL-23-induced STAT3 phosphorylation in differentiated TH17 cells (Alpha Screen SureFire p-STAT-3); format: cell-based; conditions: listed as APG-2309
T2 construct: Spleens were sterilely removed from mice, sliced, and mashed in the presence of PBS buffer; from tissue; host or cells: mouse spleen: freshly isolated splenocytes, and CD4+ cells differentiated into TH17 cells
T2 sequence (Q8K4B4 24-644): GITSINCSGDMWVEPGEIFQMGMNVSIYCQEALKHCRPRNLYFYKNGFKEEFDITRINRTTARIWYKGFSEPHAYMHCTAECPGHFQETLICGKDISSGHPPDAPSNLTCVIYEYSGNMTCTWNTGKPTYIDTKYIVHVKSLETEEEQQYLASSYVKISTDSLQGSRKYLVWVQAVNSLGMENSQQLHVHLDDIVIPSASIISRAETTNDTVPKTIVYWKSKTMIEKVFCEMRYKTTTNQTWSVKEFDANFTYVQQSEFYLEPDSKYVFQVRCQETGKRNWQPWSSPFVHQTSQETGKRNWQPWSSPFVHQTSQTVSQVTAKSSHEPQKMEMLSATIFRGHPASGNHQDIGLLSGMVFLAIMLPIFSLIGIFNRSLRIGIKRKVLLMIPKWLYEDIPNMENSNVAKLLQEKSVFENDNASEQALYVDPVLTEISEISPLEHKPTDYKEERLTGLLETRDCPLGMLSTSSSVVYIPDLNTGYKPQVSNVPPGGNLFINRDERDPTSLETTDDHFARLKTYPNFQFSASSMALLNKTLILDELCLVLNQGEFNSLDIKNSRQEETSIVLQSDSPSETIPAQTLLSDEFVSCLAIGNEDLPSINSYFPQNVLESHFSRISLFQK
Method: CD4+ cells were isolated from 2.5×10^8 splenocytes with the EasySep isolation kit (StemCell Technologies) according to the manufacturer's instructions. CD4+ cells were incubated overnight with non-essential amino acids and anti-CD3 and CD28 antibodies (see above). The next day the cells were split into 12-well plates (1-2×10^6 cells/well) and incubated with complete RPMI medium (10% FBS, Pen/Strep, and non-essential amino acids (1×)) and a differentiation cocktail containing 2 μg/ml of anti-CD3, 2 μg/ml of anti-CD28, 5 ng/ml of TGFb1, 20 ng/ml of IL-6, 10 ng/ml of IL-23, 2 μg/ml of anti-rat anti IFNγ and 10 μg/ml of anti-mouse IL-4 (final concentrations).
Splenocytes or TH17 cells were distributed in 384-well plates (Optiplate; Perkin Elmer) (100,000 cells/well). Cells were pre-incubated for 30 minutes with different concentrations of peptide APG-2305 or APG-2309 and incubated with 25 ng/ml of IL-23 (R&D systems) for 10 minutes. STAT3 phosphorylation was determined with the kit Alpha Screen SureFire p-STAT-3 assay from Perkin Elmer according to manufacturer's instructions. Briefly, after incubation with IL-23, cells were lysed and contacted with (1) protein A acceptor conjugated beads coated with anti-p-STAT-3 (Tyr705) and (2) streptavidin-coated donor beads. The resulting signal was measured with a Perkin Elmer Wallac En vision 2104 Multilabel reader. […]

**Q.** How did the EC50 ([1]; mouse, in vivo) turn out when `CSCC[C@@H](N)C(=O)N[C@H](CCC(=O)O)C(=O)N[C@H](CCC(=O)O)C(=O)N[C@H](CO)C(=O)N[C@H](CCCCN)C(=O)N[C@H](CCC(N)=O)C(=O)N[C@H](CC(C)C)C(=O)N[C@H](CCC(N)=O)C(=O)N[C@H](CC(C)C)C(=O)O` [Peptide 2309, MEESKQLQL] (HELM PEPTIDE1{[dM].[dE].[dE].[dS].[dK].[dQ].[dL].[dQ].[dL]}$$$$V2.0; N-terminus and C-terminus assumed) was run?
**A.** Its EC50 is about 50 nM.

**Q.** And the transdermal penetration ([1]; mouse, in vivo)?
**A.** Its transdermal penetration is “effective transdermal penetration”.

**Q.** And the “PMA-induced edema (weight of ear punches)” value ([1]; topical dose-response (FIG. 11B))?
**A.** The value was “dose-dependent reduction in PMA-induced edema”.

**Q.** And the “capillary leak (Evan's blue technique)” value ([1]; topical dose-response (FIG. 11C))?
**A.** Its value is “diminished capillary leak”.

**Q.** And the “concentrations showing significant efficacy” value ([1]; topical in PEG-400 (FIG. 11A))?
**A.** The value was at least 100 nM.

**Q.** And the “effect on IL-12-induced STAT4 phosphorylation” value (IL-12R)?
**A.** Its value is “does not inhibit; also recorded: inability”.

**Q.** What about the “effect on IL-23-induced STAT3 phosphorylation” value (IL-23R) of the same compound?
**A.** The value was “inhibit; also recorded: showed efficacy”.

— US20100190710A1, “IL-23 RECEPTOR ANTAGONISTS AND USES THEREOF” (Valorisation HSJ, Societe en Commandite, priority 2007, published 2010)
